≈ marks a conversion by molar mass, not a printed value. Calls of active or inactive are those of the source. The calls are words filed in the database; no cut-off is given here.
What was measured:
Candida albicans [1] = test: Antifungal activity against Candida albicans SC5314 incubated for 24 hrs by microbroth dilution method; format: functional
Aspergillus fumigatus [2] = test: Antifungal activity against Aspergillus fumigatus 7544 incubated for 48 hrs by microbroth dilution method; format: functional
Candida albicans [3] = test: Antifungal activity against Candida albicans Y0109; format: functional
Candida albicans [4] = test: Antifungal activity against Candida albicans 25#; format: functional
Candida albicans [5] = test: Antifungal activity against Candida albicans 14#; format: functional
Candida tropicalis = test: Antifungal activity against Candida tropicalis ATCC750; format: functional
Pichia kudriavzevii [6] = test: Antifungal activity against Candida krusei 397; format: functional
Pichia kudriavzevii [7] = test: Antifungal activity against Candida krusei 467; format: functional
Nakaseomyces glabratus = test: Antifungal activity against Candida glabrata ATCC2001; format: functional
[8] = Induction of drug resistance in Candida albicans SC5314 assessed as increase in MIC after 26 days (reference value: 0.0313 microg/ml); format: functional; details: SC5314, 624 h, time 26 day
[9] = molecular target: Lanosterol 14-alpha demethylase (Candida albicans (strain SC5314 / ATCC MYA-2876) (Yeast), UniProt P10613); test: Inhibition of CYP51 in Candida albicans SC5314 assessed as ergosterol level at 0.0625 ug/ml measured after 12 hrs by GC-MS analysis (reference value: 72.58%); set-up: scale not given: the % may be the effect or the level left; details: dose 0.0625 µg/ml
[10] = Half life in Sprague-Dawley rat at 5 mg/kg, po by LC-MS analysis; format: ADME, organism-based; details: in vivo
[11] = AUC(0 to infinity) in Sprague-Dawley rat at 5 mg/kg, po by LC-MS analysis; format: ADME, organism-based; set-up: time infinity, dose 5 mg/kg, route po; details: in vivo
Cryptococcus neoformans [12] = test: Antifungal activity against Cryptococcus neoformans H99 infected in ICR mouse assessed as median survival time at 0.5 mg/kg, po qd infected with fungus for 2 hrs prior to compound addition for 7 days and measured for 20 days; format: functional; details: time 20 day
Cryptococcus neoformans [13] = test: Antifungal activity against Cryptococcus neoformans H99 infected in ICR mouse assessed as median survival time at 2 mg/kg, po qd infected with fungus for 2 hrs prior to compound addition for 7 days and measured for 20 days; format: functional; details: time 20 day
Aspergillus fumigatus [14] = test: Antifungal activity against Aspergillus fumigatus 7544 infected in ICR mouse assessed as delay in mortality at 20 to 60 mg/kg, po qd infected with fungus for 2 hrs prior to compound addition for 7 days and measured for 20 days; format: functional, organism-based; details: dose 20-60 mg/kg, time 20.0 day

Sequence of Lanosterol 14-alpha demethylase (P10613 whole entry): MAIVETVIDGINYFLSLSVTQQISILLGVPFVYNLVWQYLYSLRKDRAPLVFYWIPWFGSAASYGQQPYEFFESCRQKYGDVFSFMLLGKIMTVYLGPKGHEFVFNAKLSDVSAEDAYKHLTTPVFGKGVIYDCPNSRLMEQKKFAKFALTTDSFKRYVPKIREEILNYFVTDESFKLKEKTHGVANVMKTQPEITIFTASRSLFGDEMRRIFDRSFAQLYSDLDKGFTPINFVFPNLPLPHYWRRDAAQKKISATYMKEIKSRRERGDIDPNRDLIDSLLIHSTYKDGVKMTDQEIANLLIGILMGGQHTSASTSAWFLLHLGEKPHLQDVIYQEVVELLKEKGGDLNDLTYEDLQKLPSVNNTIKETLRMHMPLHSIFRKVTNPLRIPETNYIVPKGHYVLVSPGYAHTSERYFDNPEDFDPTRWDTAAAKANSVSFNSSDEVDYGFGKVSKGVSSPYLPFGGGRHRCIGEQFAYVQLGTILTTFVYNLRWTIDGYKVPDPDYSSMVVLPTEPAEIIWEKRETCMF

SMILES: C[C@@H](c1cn(-c2ccc(Cl)cc2F)nn1)[C@](O)(Cn1cncn1)c1ccc(F)cc1F
- MIC (Candida albicans [1]): 0.0625 µg/mL (≈ 0.139 µM)
- MIC (Aspergillus fumigatus [2]): 1 µg/mL (≈ 2.23 µM)
- MIC (Candida albicans [3]): 0.0156 µg/mL (≈ 0.0348 µM)
- MIC (Candida albicans [4]): 16 µg/mL (≈ 35.6 µM)
- MIC (Candida albicans [5]): 8 µg/mL (≈ 17.8 µM)
- MIC (Candida tropicalis): 8 µg/mL (≈ 17.8 µM)
- MIC (Pichia kudriavzevii [6]): 0.125 µg/mL (≈ 0.278 µM)
- MIC (Pichia kudriavzevii [7]): 0.125 µg/mL (≈ 0.278 µM)
- MIC (Nakaseomyces glabratus): 0.125 µg/mL (≈ 0.278 µM)
- MIC [8]: 0.125 µg/mL
- Activity [9]: 0.76%
- half-life [10]: 1.4 h
- AUC(0-inf) [11]: 3860 ng·h/mL
- Time (Cryptococcus neoformans [12]): 10.5 days
- Time (Cryptococcus neoformans [13]): 8.5 days
- Activity (Aspergillus fumigatus [14]): Active
